Test results as given in patent US9278146B2, “Peptide derivative and use of the same” (priority 2010, dated 2016).

Key:
[1] = mouse, in vivo
Procedure: (§1) After 5 minutes, 15 minutes, 30 minutes, 60 minutes, and 120 minutes from the administration, organs were dissected out of the mice (n=5).
as §1
(§2) (IB-PEG3)12-Ex4 (0.77 μCi) was administered to unanesthetized 6-week-old ddY mice (male, weight: 30 g) by intravenous injection (through the tail vein). After 5 minutes, 15 minutes, 30 minutes, 60 minutes, and 120 minutes from the administration, organs were dissected out of the mice (n=5). The weight and the radioactivity of each organ were determined, and an accumulation amount (% dose/g) of (IB-PEG3)12-Ex4 was calculated from the radioactivity per unit weight.
as §1
as §2, with “(FB-PEG3)12-Ex4 (5” for “(IB-PEG3)12-Ex4 (0.77”, “(FB-PEG3)12-Ex4” for “(IB-PEG3)12-Ex4”
as §2, with “(IB-ePEG12)12-Ex4 (0.21” for “(IB-PEG3)12-Ex4 (0.77”, “(IB-ePEG12)12-Ex4” for “(IB-PEG3)12-Ex4”

pancreatic β-cells = test: Two-dimensional imaging analysis (fluorescence and autoradiography) of pancreas sections; format: in vivo, MIP-GFP mouse; conditions: without blocking
Procedure: (IB-PEG3)12-Ex4 (5.6 μCi/100 μl) was administered to an unanesthetized MIP-GFP mouse (male, weight: 20 g) by intravenous injection, and after 30 minutes from the administration, the pancreas was dissected out of the mouse (n=1). Sections were cut out of the dissected pancreas, and each section was placed on a slide glass, covered with a cover glass. The fluorescence and the radioactivity (autoradiography) of each section were determined using an image analyzer (trade name: Typhoon 9410, manufactured by GE Health Care Inc.) (exposure time 24 hours).
Sections were cut out of the dissected pancreas, and each section was placed on a slide glass, covered with a cover glass. The fluorescence and the radioactivity (autoradiography) of each section were determined using an image analyzer (trade name: Typhoon 9410, manufactured by GE Health Care Inc.) (exposure time 48 hours).
Other than these, the fluorescence and the radioactivity were determined in the same manner as above.
(FB-PEG3)12-Ex4 (292 μCi/220 μl) was administered to an unanesthetized MIP-GFP mouse (male, weight: 20 g) by intravenous injection, and after 15 minutes from the administration, the pancreas was dissected out of the mouse (n=1). Sections were cut out of the dissected pancreas, and each section was placed on a slide glass, covered with a cover glass. […]

## (IB-PEG3)12-Ex4
[1]
  accumulation in the pancreas: exceeding 25 % dose/g
  ratio of pancreas/blood: greater than 5
  ratio of pancreas/liver: greater than 10
Pancreatic β-cells
  localization of the radioactivity signal versus GFP signal in pancreas sections: substantially consistent with that of the GFP signal

## (FB-PEG3)12-Ex4
[1]
  accumulation in the pancreas: exceeding 15 % dose/g
  radioactive accumulation in the bone: small
  ratio of pancreas/blood: greater than 5
  ratio of pancreas/liver: greater than 10
Pancreatic β-cells
  localization of the radioactivity signal versus GFP signal in pancreas sections: substantially consistent with that of the GFP signal

## (IB-ePEG12)12-Ex4
[1]
  accumulation in the pancreas: exceeding 25 % dose/g
  ratio of pancreas/blood: greater than 5
  ratio of pancreas/liver: greater than 10
